Holding throughout (assay): relative viability (nuclei count vs DMSO), 5 days (fraction); higher = more cells survive
Compound in assay [1]: C=CCNC1=C2C[C@@H](C)C[C@H](OC)[C@H](O)[C@@H](C)/C=C(\C)[C@H](OC(N)=O)[C@@H](OC)/C=C\C=C(/C)C(=O)NC(=CC1=O)C2=O [17-AAG] + CCNC(=O)c1noc(-c2cc(C(C)C)c(O)cc2O)c1-c1ccc(CN2CCOCC2)cc1 [Luminespib] (partner 0.01 µM)
In a few lines: (§1)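 The day after seeding in 1536-well plates, lung cancer cell lines were treated by pin tool with a single drug, or with a fixed anchor-drug dose together with five library-drug doses (not always all listed) in √10 steps. After 5 days, a combined fix-and-stain solution (final 0.05% Triton X-100, 1% formaldehyde, 1 ug/ml Hoechst) was added. Nuclei counted on 4× images gave relative viability as treated counts over vehicle counts, reported as the median of duplicate plates.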

Compound in assay [2]: C=CCNC1=C2C[C@@H](C)C[C@H](OC)[C@H](O)[C@@H](C)/C=C(\C)[C@H](OC(N)=O)[C@@H](OC)/C=C\C=C(/C)C(=O)NC(=CC1=O)C2=O [17-AAG] + Nc1ncn([C@H]2C[C@H](O)[C@@H](CO)O2)c(=O)n1 [Decitabine] (partner 2 µM)
In a few lines: as §1

Compound in assay [3]: C=CCNC1=C2C[C@@H](C)C[C@H](OC)[C@H](O)[C@@H](C)/C=C(\C)[C@H](OC(N)=O)[C@@H](OC)/C=C\C=C(/C)C(=O)NC(=CC1=O)C2=O [17-AAG] + Cc1nc(Nc2ncc(C(=O)Nc3c(C)cccc3Cl)s2)cc(N2CCN(CCO)CC2)n1 [Dasatinib] (partner 0.075 µM)
In a few lines:
as §1

Compound in assay [4]: C=CCNC1=C2C[C@@H](C)C[C@H](OC)[C@H](O)[C@@H](C)/C=C(\C)[C@H](OC(N)=O)[C@@H](OC)/C=C\C=C(/C)C(=O)NC(=CC1=O)C2=O [17-AAG] + COc1cc2c(Oc3ccc(NC(=O)C4(C(=O)Nc5ccc(F)cc5)CC4)cc3F)ccnc2cc1OCCCN1CCOCC1 [Foretinib] (partner 0.25 µM)
The method in brief:
as §1

For the cell line LC-2-ad, the relative viability is 0.949 in assay [1] (first compound 0.00128 µM); 0.83 in assay [1] (first compound 0.004048 µM); 0.305 in assay [1] (first compound 0.0128 µM); 0.302 in assay [1] (first compound 0.04048 µM); 0.258 in assay [1] (first compound 0.128 µM); 0.776 in assay [2] (first compound 0.00128 µM). Besides, the relative viability in assay [2] (first compound 0.004048 µM) worked out at 0.876; in assay [2] (first compound 0.0128 µM), 0.713; in assay [2] (first compound 0.04048 µM) it was 0.645; in assay [2] (first compound 0.128 µM), 0.227; in assay [3] (first compound 0.00128 µM), 0.546; in assay [3] (first compound 0.004048 µM), 0.418. Besides, the relative viability was 0.18 in assay [3] (first compound 0.0128 µM); 0.198 in assay [3] (first compound 0.04048 µM); 0.12 in assay [3] (first compound 0.128 µM); 0.891 in assay [4] (first compound 0.00128 µM); 0.898 in assay [4] (first compound 0.004048 µM); 0.515 in assay [4] (first compound 0.0128 µM). The relative viability worked out at 0.343 in assay [4] (first compound 0.04048 µM) and 0.261 in assay [4] (first compound 0.128 µM).

For LCLC-97TM1, the relative viability stood at 0.826 in assay [1] (first compound 0.00128 µM); 0.785 in assay [1] (first compound 0.004048 µM); 0.707 in assay [1] (first compound 0.0128 µM); 0.58 in assay [1] (first compound 0.04048 µM); 0.195 in assay [1] (first compound 0.128 µM); 0.197 in assay [2] (first compound 0.00128 µM). Moreover, the relative viability amounted to 0.21 in assay [2] (first compound 0.004048 µM); 0.255 in assay [2] (first compound 0.0128 µM); 0.259 in assay [2] (first compound 0.04048 µM); 0.185 in assay [2] (first compound 0.128 µM); 0.796 in assay [3] (first compound 0.00128 µM); 0.813 in assay [3] (first compound 0.004048 µM). Besides, the relative viability in assay [3] (first compound 0.0128 µM) was 0.777; in assay [3] (first compound 0.04048 µM) it was 0.224; in assay [3] (first compound 0.128 µM) it was 0.159; in assay [4] (first compound 0.00128 µM), 0.973; in assay [4] (first compound 0.004048 µM), 0.897; in assay [4] (first compound 0.0128 µM), 0.958. The values for the relative viability in assay [4] (first compound 0.04048 µM) and in assay [4] (first compound 0.128 µM) were 0.991 and 0.631, respectively.

With LCLC-103H, the relative viability in assay [1] (first compound 0.00128 µM) is 1.04; in assay [1] (first compound 0.004048 µM), 0.891; in assay [1] (first compound 0.0128 µM), 0.98; in assay [1] (first compound 0.04048 µM), 0.999; in assay [1] (first compound 0.128 µM), 0.798; in assay [2] (first compound 0.00128 µM), 0.757. In addition, the relative viability in assay [2] (first compound 0.004048 µM) came to 0.715; in assay [2] (first compound 0.0128 µM), 0.731; in assay [2] (first compound 0.04048 µM) it was 0.812; in assay [2] (first compound 0.128 µM), 0.797; in assay [3] (first compound 0.00128 µM), 0.446; in assay [3] (first compound 0.004048 µM), 0.522. Moreover, the relative viability was 0.464 in assay [3] (first compound 0.0128 µM); 0.456 in assay [3] (first compound 0.04048 µM); 0.46 in assay [3] (first compound 0.128 µM); 0.874 in assay [4] (first compound 0.00128 µM); 0.818 in assay [4] (first compound 0.004048 µM); 0.736 in assay [4] (first compound 0.0128 µM). Besides, the figures for the relative viability in assay [4] (first compound 0.04048 µM) and in assay [4] (first compound 0.128 µM) were 0.932 and 1.01, respectively.

With LK-2, the relative viability in assay [1] (first compound 0.00128 µM) came out at 0.201; in assay [1] (first compound 0.004048 µM), 0.162; in assay [1] (first compound 0.0128 µM) it was 0.181; in assay [1] (first compound 0.04048 µM) it was 0.17; in assay [1] (first compound 0.128 µM), 0.177; in assay [2] (first compound 0.00128 µM) it was 0.269. Moreover, the relative viability in assay [2] (first compound 0.004048 µM) was determined as 0.37; in assay [2] (first compound 0.0128 µM), 0.187; in assay [2] (first compound 0.04048 µM), 0.0931; in assay [2] (first compound 0.128 µM), 0.0957; in assay [3] (first compound 0.00128 µM), 0.285; in assay [3] (first compound 0.004048 µM), 0.396. Also, the relative viability in assay [3] (first compound 0.0128 µM) worked out at 0.224; in assay [3] (first compound 0.04048 µM), 0.157; in assay [3] (first compound 0.128 µM) it was 0.116; in assay [4] (first compound 0.00128 µM) it was 1.09; in assay [4] (first compound 0.004048 µM), 1.11; in assay [4] (first compound 0.0128 µM), 1.21. Also, the results for the relative viability in assay [4] (first compound 0.04048 µM) and in assay [4] (first compound 0.128 µM) were 1.26 and 0.25, respectively.
